Laboratory results: US20030108872A1, “Genomics-assisted rapid identification of targets” (priority 2000, published 2003)

What was measured:
Assay type in all cases: cell-based
[1] = system: E. coli strain WO-153; assay: Genome-wide E. coli ORFmer overexpression rescue (OER) assay
Protocol: Over expression Rescue Assays. Over expression assays were conducted with the E. coli strain WO-153 described in Table 7. Construction of WO-0153. […] The asmB1 mutation is a G to A transition at position 628 in the 1pxC gene. […] The tolC gene encodes an outer membrane protein that acts as a channel for the acrAB efflux pumps (See for example, Fralick, J. 1996. J. Bacteriol. 178:5801-5805). […] WO-0153 was constructed as follows. The asmB1 mutation was introduced into a DNA fragment containing the 1pxC gene and 1 kb of the 5′ end of the secA gene by site directed mutagenesis of the 1pxC gene using standard methods. A kan^R resistance cassette flanked by FRT sites was introduced 60 bp downstream of the 1pxC gene. The linear DNA construct was introduced into electrocompetent and recombinogenic E. coli KM354 (pTP223) as described by Murphy (See for example, Murphy, 1998, J. Bacteriol. 180: 2063-71). Transformants were selected on LB agar containing kanamycin (35 mcg/ml) and screened for sensitivity to novobiocin (20 mcg/ml). The presence of the asmB1 mutation in clones with the expected phenotype was verified by DNA sequence analysis. The kanR gene flanked by FRT sites was then excised from the 1pxC-secA intergenic region using a previously described method (See for example, Cherepanove, P. P, and Wackernagel, W. 1995. Gene 158: 9-14.). […] 178:5138-5143; Fralick, J. (1996). J. Bacteriol. 178:5801-5805; Fralick, J. A., et al. (1994) J. Bacteriol. 176:6404-6406; and Cherepanove, P. P, et al., (1995) Gene 158:9-14. […] Plasmid library DNA was transformed into WO-153 by electroporation as described above. Cells were collected from transformation plates by scraping and were equalized to an optical density of 1.53 on a Beckman DU650 spectrophotometer([…]). Groups of five libraries were mixed and frozen in LB media plus 10% (vol/vol) glycerol by immersion in a dry-ice/ethanol bath for 5 minutes.
Over-expression assays were performed in liquid media in a microtiter format, in a gradient plate format, or in a disk-diffusion format. The protocol used for the microtiter format was similar to the protocol described above for the MIC assay. Aliquots of 5 library pools spanning the genome were thawed at room temperature and 200 ul of each was inoculated into its own 20 ml of Mueller Hinton media containing ampicillin at 200 ug/ml and anhydrous tetracycline inducer as appropriate. Typically, replicates were performed using a number of final inducer concentrations, ranging from 0 to 100 ng/ml. Following an adequate mixing, 50 ul of inoculated media was mixed with 50 ul of the test antibiotic in Nunc brand 96-well microtiterplates. Typically, each group of five libraries was mixed with a range of concentrations of antibiotic spanning the minimum inhibitory concentration (MIC) of the antibiotic. […] Columns may contain 10 different groups of libraries as well as null vector and no innoculum controls. After mixing inoculum plus media with antibiotic, well contents were mixed by pipetting and incubated at 37° C. for 16 to 20 hours. Optical density at 600 nm was measured using a Molecular Devices SpectraMAX 250 spectrophotometer. […] Contents of wells showing rescue were transferred to LB agar plates containing ampicillin at 100 ug/ml, and were spread to obtain single colonies. Alternately, it is possible to maintain selection for the antibiotic being assayed by including it in the agar plates at this point.
OER Assay using Disk diffusion and Gradient Plate Assay formats. In the Disk diffusion plate format, the 3 inocula (see below) were plated on MHB plates containing ampicillin (100 mcg/ml) and anhydrous tetracycline (a-tet, 100 ng/ml). Two paper disks (6 mm diameter) containing 10×and 20×MIC of the test antiobiotic were placed on the surface of the plate.

[2] = system: cells in which murA is regulated by PBAD; assay: MIC by microbroth dilution in E. coli under-expressing murA; conditions: FIG. 6
Protocol: The wild-type gene murA, which encodes the enzyme UDP-N-acetylglucosamine enolpyruvate transferase, was knocked out in E. coli, and the gene was placed under ectopic expression in the yibD locus under regulation by PBAD with the regulator, L-arabinose.
(§1) Methods. […] IPTG was added to a final concentration of 0.1 mM and anhydrous-tetracycline was added to a final concentration of 100 ng/ml to the culture media for routine growth of GTC-EC#313 and GTC-EC#346, respectively.
(§2) The specificity and sensitivity of the resultant colonies to added drugs were followed by measuring the minimal inhibitory concentration (MIC) of trimethoprim, sulfamethozasone, phosphomycin and D-cycloserine at varying regulator levels. This was performed according to NCCLS (National Center for Clinical Laboratory Standards) recommendations(NCCLS, 1997, METHODS FOR DILUTION ANTIMICROBIAL SUSCEPTIBILITY TESTS FOR BACTERIA THAT GROW AEROBICALLY, 4th ed.; approved standard. NCCLS document M7-A4. NCCLS, Wayne, Pa.), in 100 μl volume in 96-well format, with serial two-fold dilutions of drug concentration.

[3] = system: B. subtilis NO-347 (BD170 thrC::Pspac-murA kanR ΔmurA::CmR); assay: MIC by microbroth dilution in B. subtilis under-expressing murA; conditions: IPTG 0-0.1 mM, compared to the control strain, FIG. 10
Protocol: Materials and Methods. The materials are the same as discussed above. Plasmids are listed in Table 4 B. subtilis strains were routinely grown in LB media or on LB agar plates containing 1.5% agar (Sambrook et al., MOLECULAR CLONING: A LABORATORY MANUAL, 2nd ed., Cold Spring Harbor Laboratory Press, 1989). MIC determination is performed using microbroth dilution-cultures grown in Mueller Hinton broth in 96-well microtiter plates purchased from Nunc (Plates—Cat. No. 262162; Lids—Cat. No. 264122). When required, media were supplemented with 5 μg/ml chloramphenicol or 10 μg/ml kanamycin. IPTG was added to culture media at a final concentration of 0.05 mM for routine culture growth of B. subtilis NO-347 (BDI70 thrC::Pspac-murA kan^R ΔmurA::Cm^R), which is dependent on IPTG for growth.
The endogenous murA gene in NO-360 was deleted by allelic replacement as follows (see FIG. 9). DNA fragments flanking the 5′ and 3′ ends of the murA gene were amplified from B. subtilis 168 genomic DNA using primer pairs KO mura F1+R2 and KO murA F2+R1, respectively. The 5′ and 3′ flanking fragments were linked to the Cm^R gene from pEVP3 using the cross-over PCR technique with the primer pair KO mura F1+R1. The resulting PCR product (shown in FIG. 9B) was used to transform naturally competent B. subtilis NO-360. Cm^R clones were selected in the presence of 0.01 mM and 0.05 mM IPTG. Allelic replacement of murA in Cm^R clones was verified by PCR. Strain NO-347 (BD170 thrC::Pspac-murA Kan^R ΔmurA::Cm^R) was chosen for MIC determinations for phosphomycin in presence of various concentrations of the regulator IPTG.
MIC determinations. Determination of minimum inhibitory concentration (MIC) for phosphomycin, novobiocin, erythromycin and trimethoprim lactate were performed in 96-well microliter plates using the microbroth dilution technique as described in NCCLS. 1997. Methods for dilution antimicrobial susceptibility tests for bacteria that grow aerobically-fourth edition; approved standard. NCCLS document M7-A4. NCCLS, Wayne, Pa. For MIC determinations using strain NO-347, various concentrations (0-0.1 mM) were added to the media. Growth was quantitated by OD600 measurements using a SpectroMax 250 plate reader (Molecular Devices).

[4] = system: cells in which folA is regulated by PBAD, PLtetO-1, or Plac/ara-1; assay: MIC by microbroth dilution in E. coli under-expressing folA; conditions: FIG. 5
Protocol: In another example, the wild-type native folA gene was knocked out, and a wild-type copy of the gene folA, which encodes the protein dihydrofolate reductase, was placed under ectopic expression in the yibD locus under regulation by PBAD with the regulator, L-arabinose. Dihydropteroate synthetase, the gene product of […], catalyzes the enzymatic reaction two steps before dihydrofolate reductase in the folate biosynthetic pathway.
as §1, §2

With `N[C@@H]1CONC1=O` [D-cycloserine] as the compound, how does the “identity of OER clones that were not the expected gene, by sequence analyses” value [1] read?
The value was “closely related ddlB gene”.

And the “OER clones that were not the expected ddlA gene” value ([1]; PCR verification of OER clones)?
The value was 80%.

What about the “sensitivity on under-expression of murA” value [2] of the same compound?
Its value is “hypersensitivity”.

For `CC[C@H]1OC(=O)[C@H](C)[C@@H](O[C@H]2C[C@@](C)(OC)[C@@H](O)[C@H](C)O2)[C@H](C)[C@@H](O[C@@H]2O[C@H](C)C[C@H](N(C)C)[C@H]2O)[C@](C)(O)C[C@@H](C)C(=O)[C@H](C)[C@@H](O)[C@]1(C)O` [erythromycin], which “sensitivity (MIC) on regulated under-expression of murA” value [3] is on record?
Its value is “does not affect sensitivity”.

With `CO[C@@H]1[C@@H](OC(N)=O)[C@@H](O)[C@H](Oc2ccc3c(O)c(NC(=O)c4ccc(O)c(CC=C(C)C)c4)c(=O)oc3c2C)OC1(C)C` [novobiocin] as the compound, how does the “sensitivity (MIC) on regulated under-expression of murA” value [3] read?
Its value is “does not affect sensitivity”.

With `Cc1cc(NS(=O)(=O)c2ccc(N)cc2)no1` [sulfamethozasone] as the compound, how does the “MIC with decreasing regulator (L-arabinose) level” value [4] read?
The value was “decreases”.

Which “PCR verification of OER clones: expected target gene” value ([1]; liquid microtiter assay, expected targets folA, murA, fabI) does the source give for `Oc1cc(Cl)ccc1Oc1ccc(Cl)cc1Cl` [triclosan] here?
The value was “expected target gene was identifed”.

What about the “PCR verification of OER clones: expected clone” value ([1]; two plate assay format (disk diffusion, gradient plate)) of the same compound?
Its value is “expected clone was isolated”.
